Laboratory results taken from paper PMC3973950, “Synthesis of 5-arylidine amino-1,3,4-thiadiazol-2-[(N-substituted benzyol)]sulphonamides endowed with potent antioxidants and anticancer activity induces growth inhibition in HEK293, BT474 and NCI-H226 cells” (Medicinal Chemistry Research, 2013).

System: not listed separately
Assay: In vitro cytotoxicity by MTT assay, HEK 293
Type: cell-based, human
Conditions: human, HEK 293 cells, 0.005 μM, read-out: % cytotoxicity (100 − % cell survival) of HEK 293 cell line
How it was run: (§1)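 Monolayers seeded at […] (about 10,000 per well) were treated after 24 h with the synthesized compounds and incubated three days. Viability was taken from MTT reduction, with formazan measured at 490 nm.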

Compound	cytotoxicity at 72 h, 0.005 µM [%]
Nc1ccc(S(=O)(=O)Nc2nnc(S(=O)(=O)NC(=O)c3ccccc3O)s2)cc1 [Compound 7d]	18.9
Nc1ccc(S(=O)(=O)Nc2nnc(S(=O)(=O)NC(=O)c3ccc([N+](=O)[O-])cc3)s2)cc1 [Compound 7e]	26.9

Same assay, conditions: human, HEK 293 cells, 0.015 μM, read-out: % cytotoxicity (100 − % cell survival) of HEK 293 cell line

Compound	cytotoxicity at 72 h, 0.015 µM [%]
Nc1ccc(S(=O)(=O)Nc2nnc(S(=O)(=O)NC(=O)c3ccccc3O)s2)cc1 [Compound 7d]	19.9
Nc1ccc(S(=O)(=O)Nc2nnc(S(=O)(=O)NC(=O)c3ccc([N+](=O)[O-])cc3)s2)cc1 [Compound 7e]	29

Same assay, conditions: human, HEK 293 cells, 0.045 μM, read-out: % cytotoxicity (100 − % cell survival) of HEK 293 cell line

Compound	cytotoxicity at 72 h, 0.045 µM [%]
Nc1ccc(S(=O)(=O)Nc2nnc(S(=O)(=O)NC(=O)c3ccccc3O)s2)cc1 [Compound 7d]	20.3
Nc1ccc(S(=O)(=O)Nc2nnc(S(=O)(=O)NC(=O)c3ccc([N+](=O)[O-])cc3)s2)cc1 [Compound 7e]	30.2

Same assay, conditions: human, HEK 293 cells, 0.13 μM, read-out: % cytotoxicity (100 − % cell survival) of HEK 293 cell line

Compound	cytotoxicity at 72 h, 0.13 µM [%]
Nc1ccc(S(=O)(=O)Nc2nnc(S(=O)(=O)NC(=O)c3ccccc3O)s2)cc1 [Compound 7d]	22.2
Nc1ccc(S(=O)(=O)Nc2nnc(S(=O)(=O)NC(=O)c3ccc([N+](=O)[O-])cc3)s2)cc1 [Compound 7e]	32.1

Same assay, conditions: human, HEK 293 cells, 0.41 μM, read-out: % cytotoxicity (100 − % cell survival) of HEK 293 cell line

Compound	cytotoxicity at 72 h, 0.41 µM [%]
Nc1ccc(S(=O)(=O)Nc2nnc(S(=O)(=O)NC(=O)c3ccccc3O)s2)cc1 [Compound 7d]	24.1
Nc1ccc(S(=O)(=O)Nc2nnc(S(=O)(=O)NC(=O)c3ccc([N+](=O)[O-])cc3)s2)cc1 [Compound 7e]	34.7

Same assay, conditions: human, HEK 293 cells, 1.23 μM, read-out: % cytotoxicity (100 − % cell survival) of HEK 293 cell line

Compound	cytotoxicity at 72 h, 1.23 µM [%]
Nc1ccc(S(=O)(=O)Nc2nnc(S(=O)(=O)NC(=O)c3ccccc3O)s2)cc1 [Compound 7d]	25.3
Nc1ccc(S(=O)(=O)Nc2nnc(S(=O)(=O)NC(=O)c3ccc([N+](=O)[O-])cc3)s2)cc1 [Compound 7e]	35.5

Same assay, conditions: human, HEK 293 cells, 3.7 μM, read-out: % cytotoxicity (100 − % cell survival) of HEK 293 cell line

Compound	cytotoxicity at 72 h, 3.7 µM [%]
Nc1ccc(S(=O)(=O)Nc2nnc(S(=O)(=O)NC(=O)c3ccccc3O)s2)cc1 [Compound 7d]	26.6
Nc1ccc(S(=O)(=O)Nc2nnc(S(=O)(=O)NC(=O)c3ccc([N+](=O)[O-])cc3)s2)cc1 [Compound 7e]	36.4

Same assay, conditions: human, HEK 293 cells, 11.11 μM, read-out: % cytotoxicity (100 − % cell survival) of HEK 293 cell line

Compound	cytotoxicity at 72 h, 11.11 µM [%]
Nc1ccc(S(=O)(=O)Nc2nnc(S(=O)(=O)NC(=O)c3ccccc3O)s2)cc1 [Compound 7d]	27.2
Nc1ccc(S(=O)(=O)Nc2nnc(S(=O)(=O)NC(=O)c3ccc([N+](=O)[O-])cc3)s2)cc1 [Compound 7e]	38.1

Same assay, conditions: human, HEK 293 cells, 33.33 μM, read-out: % cytotoxicity (100 − % cell survival) of HEK 293 cell line

Compound	cytotoxicity at 72 h, 33.33 µM [%]
Nc1ccc(S(=O)(=O)Nc2nnc(S(=O)(=O)NC(=O)c3ccccc3O)s2)cc1 [Compound 7d]	29
Nc1ccc(S(=O)(=O)Nc2nnc(S(=O)(=O)NC(=O)c3ccc([N+](=O)[O-])cc3)s2)cc1 [Compound 7e]	38.8

Same assay, conditions: human, HEK 293 cells, 100 μM, read-out: % cytotoxicity (100 − % cell survival) of HEK 293 cell line

Compound	cytotoxicity at 72 h, 100 µM [%]
Nc1ccc(S(=O)(=O)Nc2nnc(S(=O)(=O)NC(=O)c3ccccc3O)s2)cc1 [Compound 7d]	29.6
Nc1ccc(S(=O)(=O)Nc2nnc(S(=O)(=O)NC(=O)c3ccc([N+](=O)[O-])cc3)s2)cc1 [Compound 7e]	39.8

System: BT474 (breast cancer cell line)
Assay: In vitro cytotoxicity by MTT assay, BT474
Type: cell-based
Conditions: Homo sapiens, BT-474, 0.005 μM, 72 h, read-out: % cytotoxicity (100 − % cell survival) of BT474 cell line
How it was run: as §1

Compound	cytotoxicity at 0.005 µM [%]
Nc1ccc(S(=O)(=O)Nc2nnc(S(=O)(=O)NC(=O)c3ccccc3O)s2)cc1 [Compound 7d]	28.5
Nc1ccc(S(=O)(=O)Nc2nnc(S(=O)(=O)NC(=O)c3ccc([N+](=O)[O-])cc3)s2)cc1 [Compound 7e]	43.9

Same assay, conditions: Homo sapiens, BT-474, 0.015 μM, 72 h, read-out: % cytotoxicity (100 − % cell survival) of BT474 cell line

Compound	cytotoxicity at 0.015 µM [%]
Nc1ccc(S(=O)(=O)Nc2nnc(S(=O)(=O)NC(=O)c3ccccc3O)s2)cc1 [Compound 7d]	29.3
Nc1ccc(S(=O)(=O)Nc2nnc(S(=O)(=O)NC(=O)c3ccc([N+](=O)[O-])cc3)s2)cc1 [Compound 7e]	44.2

Same assay, conditions: Homo sapiens, BT-474, 0.045 μM, 72 h, read-out: % cytotoxicity (100 − % cell survival) of BT474 cell line

Compound	cytotoxicity at 0.045 µM [%]
Nc1ccc(S(=O)(=O)Nc2nnc(S(=O)(=O)NC(=O)c3ccccc3O)s2)cc1 [Compound 7d]	30.6
Nc1ccc(S(=O)(=O)Nc2nnc(S(=O)(=O)NC(=O)c3ccc([N+](=O)[O-])cc3)s2)cc1 [Compound 7e]	45.4

Same assay, conditions: Homo sapiens, BT-474, 0.13 μM, 72 h, read-out: % cytotoxicity (100 − % cell survival) of BT474 cell line

Compound	cytotoxicity at 0.13 µM [%]
Nc1ccc(S(=O)(=O)Nc2nnc(S(=O)(=O)NC(=O)c3ccccc3O)s2)cc1 [Compound 7d]	31.9
Nc1ccc(S(=O)(=O)Nc2nnc(S(=O)(=O)NC(=O)c3ccc([N+](=O)[O-])cc3)s2)cc1 [Compound 7e]	46.3

Same assay, conditions: Homo sapiens, BT-474, 0.41 μM, 72 h, read-out: % cytotoxicity (100 − % cell survival) of BT474 cell line

Compound	cytotoxicity at 0.41 µM [%]
Nc1ccc(S(=O)(=O)Nc2nnc(S(=O)(=O)NC(=O)c3ccccc3O)s2)cc1 [Compound 7d]	33.1
Nc1ccc(S(=O)(=O)Nc2nnc(S(=O)(=O)NC(=O)c3ccc([N+](=O)[O-])cc3)s2)cc1 [Compound 7e]	47.1

Same assay, conditions: Homo sapiens, BT-474, 1.23 μM, 72 h, read-out: % cytotoxicity (100 − % cell survival) of BT474 cell line

Compound	cytotoxicity at 1.23 µM [%]
Nc1ccc(S(=O)(=O)Nc2nnc(S(=O)(=O)NC(=O)c3ccccc3O)s2)cc1 [Compound 7d]	34.4
Nc1ccc(S(=O)(=O)Nc2nnc(S(=O)(=O)NC(=O)c3ccc([N+](=O)[O-])cc3)s2)cc1 [Compound 7e]	47.6

Same assay, conditions: Homo sapiens, BT-474, 3.7 μM, 72 h, read-out: % cytotoxicity (100 − % cell survival) of BT474 cell line

Compound	cytotoxicity at 3.7 µM [%]
Nc1ccc(S(=O)(=O)Nc2nnc(S(=O)(=O)NC(=O)c3ccccc3O)s2)cc1 [Compound 7d]	35.7
Nc1ccc(S(=O)(=O)Nc2nnc(S(=O)(=O)NC(=O)c3ccc([N+](=O)[O-])cc3)s2)cc1 [Compound 7e]	48.5

Same assay, conditions: Homo sapiens, BT-474, 11.11 μM, 72 h, read-out: % cytotoxicity (100 − % cell survival) of BT474 cell line

Compound	cytotoxicity at 11.11 µM [%]
Nc1ccc(S(=O)(=O)Nc2nnc(S(=O)(=O)NC(=O)c3ccccc3O)s2)cc1 [Compound 7d]	36.1
Nc1ccc(S(=O)(=O)Nc2nnc(S(=O)(=O)NC(=O)c3ccc([N+](=O)[O-])cc3)s2)cc1 [Compound 7e]	49.1

Same assay, conditions: Homo sapiens, BT-474, 33.33 μM, 72 h, read-out: % cytotoxicity (100 − % cell survival) of BT474 cell line

Compound	cytotoxicity at 33.33 µM [%]
Nc1ccc(S(=O)(=O)Nc2nnc(S(=O)(=O)NC(=O)c3ccccc3O)s2)cc1 [Compound 7d]	38
Nc1ccc(S(=O)(=O)Nc2nnc(S(=O)(=O)NC(=O)c3ccc([N+](=O)[O-])cc3)s2)cc1 [Compound 7e]	50.4

Same assay, conditions: Homo sapiens, BT-474, 100 μM, 72 h, read-out: % cytotoxicity (100 − % cell survival) of BT474 cell line

Compound	cytotoxicity at 100 µM [%]
Nc1ccc(S(=O)(=O)Nc2nnc(S(=O)(=O)NC(=O)c3ccccc3O)s2)cc1 [Compound 7d]	38.9
Nc1ccc(S(=O)(=O)Nc2nnc(S(=O)(=O)NC(=O)c3ccc([N+](=O)[O-])cc3)s2)cc1 [Compound 7e]	51.2

System: not listed separately
Assay: In vitro cytotoxicity by MTT assay, NCI-H226
Type: cell-based
Conditions: human, NCI-H226 lung cancer cells, 0.015 μM, read-out: % Cytotoxicity (100 − % cell survival) of NCI-H226 cell line
How it was run: as §1

Compound	cytotoxicity at 72 h, 0.015 µM [%]
Nc1ccc(S(=O)(=O)Nc2nnc(S(=O)(=O)NC(=O)c3ccccc3O)s2)cc1 [Compound 7d]	34.1
Nc1ccc(S(=O)(=O)Nc2nnc(S(=O)(=O)NC(=O)c3ccc([N+](=O)[O-])cc3)s2)cc1 [Compound 7e]	30

System: NCI-H226 (lung cancer cell line)
Assay: In vitro cytotoxicity by MTT assay, NCI-H226
Type: cell-based
Conditions: Homo sapiens, NCI-H226, 0.005 μM, 72 h, read-out: % Cytotoxicity (100 − % cell survival) of NCI-H226 cell line
How it was run: as §1

Compound	cytotoxicity at 0.005 µM [%]
Nc1ccc(S(=O)(=O)Nc2nnc(S(=O)(=O)NC(=O)c3ccccc3O)s2)cc1 [Compound 7d]	33.7
Nc1ccc(S(=O)(=O)Nc2nnc(S(=O)(=O)NC(=O)c3ccc([N+](=O)[O-])cc3)s2)cc1 [Compound 7e]	29

Same assay, conditions: Homo sapiens, NCI-H226, 0.045 μM, 72 h, read-out: % Cytotoxicity (100 − % cell survival) of NCI-H226 cell line

Compound	cytotoxicity at 0.045 µM [%]
Nc1ccc(S(=O)(=O)Nc2nnc(S(=O)(=O)NC(=O)c3ccccc3O)s2)cc1 [Compound 7d]	34.6
Nc1ccc(S(=O)(=O)Nc2nnc(S(=O)(=O)NC(=O)c3ccc([N+](=O)[O-])cc3)s2)cc1 [Compound 7e]	30.5

Same assay, conditions: Homo sapiens, NCI-H226, 0.13 μM, 72 h, read-out: % Cytotoxicity (100 − % cell survival) of NCI-H226 cell line

Compound	cytotoxicity at 0.13 µM [%]
Nc1ccc(S(=O)(=O)Nc2nnc(S(=O)(=O)NC(=O)c3ccccc3O)s2)cc1 [Compound 7d]	35.2
Nc1ccc(S(=O)(=O)Nc2nnc(S(=O)(=O)NC(=O)c3ccc([N+](=O)[O-])cc3)s2)cc1 [Compound 7e]	31.8

Same assay, conditions: Homo sapiens, NCI-H226, 0.41 μM, 72 h, read-out: % Cytotoxicity (100 − % cell survival) of NCI-H226 cell line

Compound	cytotoxicity at 0.41 µM [%]
Nc1ccc(S(=O)(=O)Nc2nnc(S(=O)(=O)NC(=O)c3ccccc3O)s2)cc1 [Compound 7d]	35.7
Nc1ccc(S(=O)(=O)Nc2nnc(S(=O)(=O)NC(=O)c3ccc([N+](=O)[O-])cc3)s2)cc1 [Compound 7e]	33.5

Same assay, conditions: Homo sapiens, NCI-H226, 1.23 μM, 72 h, read-out: % Cytotoxicity (100 − % cell survival) of NCI-H226 cell line

Compound	cytotoxicity at 1.23 µM [%]
Nc1ccc(S(=O)(=O)Nc2nnc(S(=O)(=O)NC(=O)c3ccccc3O)s2)cc1 [Compound 7d]	35.4
Nc1ccc(S(=O)(=O)Nc2nnc(S(=O)(=O)NC(=O)c3ccc([N+](=O)[O-])cc3)s2)cc1 [Compound 7e]	34.5

Same assay, conditions: Homo sapiens, NCI-H226, 3.7 μM, 72 h, read-out: % Cytotoxicity (100 − % cell survival) of NCI-H226 cell line

Compound	cytotoxicity at 3.7 µM [%]
Nc1ccc(S(=O)(=O)Nc2nnc(S(=O)(=O)NC(=O)c3ccccc3O)s2)cc1 [Compound 7d]	36
Nc1ccc(S(=O)(=O)Nc2nnc(S(=O)(=O)NC(=O)c3ccc([N+](=O)[O-])cc3)s2)cc1 [Compound 7e]	34.9

Same assay, conditions: Homo sapiens, NCI-H226, 11.11 μM, 72 h, read-out: % Cytotoxicity (100 − % cell survival) of NCI-H226 cell line

Compound	cytotoxicity at 11.11 µM [%]
Nc1ccc(S(=O)(=O)Nc2nnc(S(=O)(=O)NC(=O)c3ccccc3O)s2)cc1 [Compound 7d]	37.9
Nc1ccc(S(=O)(=O)Nc2nnc(S(=O)(=O)NC(=O)c3ccc([N+](=O)[O-])cc3)s2)cc1 [Compound 7e]	35.5

Same assay, conditions: Homo sapiens, NCI-H226, 33.33 μM, 72 h, read-out: % Cytotoxicity (100 − % cell survival) of NCI-H226 cell line

Compound	cytotoxicity at 33.33 µM [%]
Nc1ccc(S(=O)(=O)Nc2nnc(S(=O)(=O)NC(=O)c3ccccc3O)s2)cc1 [Compound 7d]	38.5
Nc1ccc(S(=O)(=O)Nc2nnc(S(=O)(=O)NC(=O)c3ccc([N+](=O)[O-])cc3)s2)cc1 [Compound 7e]	35.8

Same assay, conditions: Homo sapiens, NCI-H226, 100 μM, 72 h, read-out: % Cytotoxicity (100 − % cell survival) of NCI-H226 cell line

Compound	cytotoxicity at 100 µM [%]
Nc1ccc(S(=O)(=O)Nc2nnc(S(=O)(=O)NC(=O)c3ccccc3O)s2)cc1 [Compound 7d]	38.9
Nc1ccc(S(=O)(=O)Nc2nnc(S(=O)(=O)NC(=O)c3ccc([N+](=O)[O-])cc3)s2)cc1 [Compound 7e]	36
